Measurements: PMC4873255 (Bioorganic & medicinal chemistry letters, 2015)

Columns and labels:
[1] = target: rat μ-opioid receptors (rMOR) (Rattus norvegicus, UniProt P33535); assay: biochemical; assay type: binding
[2] = target: δ opioid receptors (Mus musculus, UniProt P32300); assay: cell-based
[3] = target: μ opioid receptors (Cavia porcellus, UniProt P97266); assay: cell-based; design: species or system guinea pig
[4] = target: human δ opioid receptors (hDOR) (Homo sapiens, UniProt P41143); assay: biochemical; assay type: binding
human δ opioid receptors (hDOR), sequence (P41143 whole entry): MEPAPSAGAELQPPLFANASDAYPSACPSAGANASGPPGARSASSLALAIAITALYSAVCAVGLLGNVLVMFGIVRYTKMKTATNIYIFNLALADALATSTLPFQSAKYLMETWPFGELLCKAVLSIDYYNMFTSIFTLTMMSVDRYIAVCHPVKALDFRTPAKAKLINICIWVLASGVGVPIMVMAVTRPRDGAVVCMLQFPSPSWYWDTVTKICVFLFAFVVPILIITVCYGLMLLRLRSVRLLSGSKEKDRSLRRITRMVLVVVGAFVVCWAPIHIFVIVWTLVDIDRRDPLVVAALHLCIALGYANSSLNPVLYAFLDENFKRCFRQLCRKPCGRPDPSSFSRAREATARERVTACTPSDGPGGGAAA

rat μ-opioid receptors (rMOR), sequence (P33535 whole entry): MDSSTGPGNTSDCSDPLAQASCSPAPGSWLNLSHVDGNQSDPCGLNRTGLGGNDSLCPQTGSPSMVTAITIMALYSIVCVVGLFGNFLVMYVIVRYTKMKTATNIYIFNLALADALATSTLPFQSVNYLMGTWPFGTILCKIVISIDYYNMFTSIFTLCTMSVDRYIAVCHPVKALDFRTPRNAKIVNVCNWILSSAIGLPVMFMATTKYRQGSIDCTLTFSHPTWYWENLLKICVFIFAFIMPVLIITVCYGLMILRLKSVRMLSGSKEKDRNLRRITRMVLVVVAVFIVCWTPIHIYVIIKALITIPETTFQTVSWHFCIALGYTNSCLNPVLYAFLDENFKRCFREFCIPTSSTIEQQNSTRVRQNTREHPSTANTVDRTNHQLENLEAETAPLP
μ opioid receptors, sequence (P97266 whole entry, looked up): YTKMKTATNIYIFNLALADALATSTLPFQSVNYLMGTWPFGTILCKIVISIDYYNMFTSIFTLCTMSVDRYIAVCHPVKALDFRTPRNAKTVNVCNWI
δ opioid receptors, sequence (P32300 whole entry): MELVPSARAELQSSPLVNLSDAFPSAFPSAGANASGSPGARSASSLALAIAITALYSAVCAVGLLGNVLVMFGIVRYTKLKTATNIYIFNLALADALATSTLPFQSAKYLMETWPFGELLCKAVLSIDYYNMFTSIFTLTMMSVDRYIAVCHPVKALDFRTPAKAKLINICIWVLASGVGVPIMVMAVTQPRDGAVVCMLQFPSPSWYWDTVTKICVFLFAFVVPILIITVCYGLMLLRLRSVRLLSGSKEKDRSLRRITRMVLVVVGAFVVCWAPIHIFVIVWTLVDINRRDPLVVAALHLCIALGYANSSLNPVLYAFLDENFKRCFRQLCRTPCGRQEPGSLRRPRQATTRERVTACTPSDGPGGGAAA

Structure (SMILES): CCC(=O)N(CC1CCCCN1Cc1ccc2c(c1)CCC[C@H]2N(C(=O)CCNC(=O)[C@H](Cc1ccccc1)NC(=O)CNC(=O)[C@@H](C)NC(=O)[C@@H](N)Cc1c(C)cc(O)cc1C)C(=O)CCNC(=O)[C@H](Cc1ccccc1)NC(=O)CNC(=O)[C@@H](C)NC(=O)[C@@H](N)Cc1c(C)cc(O)cc1C)c1ccc(F)c(F)c1 (stereo partly drawn) [Compound 10]
- IC50 [1]: 1.29 nM
- Ki [1]: 0.6 nM
- IC50 [2]: 6.1 ± 1.5 nM
- IC50 [3]: 2.1 ± 0.45 nM
- IC50 [4]: 1.41 nM
- Ki [4]: 0.6 nM
